Where two headings read alike, the source gives them in different places.
Molecular target: Kv1.5 (Homo sapiens, UniProt P22460)
Experiment: Kv1.5 inhibition assay (IKur inhibitor assay per cited references)
Type: cell-based
Conditions: for inhibition at 0.3 µM / Kv1.5% inhibition: at 0.3 μM
From the text: Assays to determine the degree of activity of a compound as an IKur inhibitor are well known in the art and are described in references such as J. Gen. Physiol. Apr.; 101 (4):513-43, and Br. J. Pharmacol. 1995 May; 115(2):267-74.

[1] = given as % inhibition, value given as a concentration in μM, read-out: Kv1.5% inhibition

Kv1.5, sequence (P22460 whole entry): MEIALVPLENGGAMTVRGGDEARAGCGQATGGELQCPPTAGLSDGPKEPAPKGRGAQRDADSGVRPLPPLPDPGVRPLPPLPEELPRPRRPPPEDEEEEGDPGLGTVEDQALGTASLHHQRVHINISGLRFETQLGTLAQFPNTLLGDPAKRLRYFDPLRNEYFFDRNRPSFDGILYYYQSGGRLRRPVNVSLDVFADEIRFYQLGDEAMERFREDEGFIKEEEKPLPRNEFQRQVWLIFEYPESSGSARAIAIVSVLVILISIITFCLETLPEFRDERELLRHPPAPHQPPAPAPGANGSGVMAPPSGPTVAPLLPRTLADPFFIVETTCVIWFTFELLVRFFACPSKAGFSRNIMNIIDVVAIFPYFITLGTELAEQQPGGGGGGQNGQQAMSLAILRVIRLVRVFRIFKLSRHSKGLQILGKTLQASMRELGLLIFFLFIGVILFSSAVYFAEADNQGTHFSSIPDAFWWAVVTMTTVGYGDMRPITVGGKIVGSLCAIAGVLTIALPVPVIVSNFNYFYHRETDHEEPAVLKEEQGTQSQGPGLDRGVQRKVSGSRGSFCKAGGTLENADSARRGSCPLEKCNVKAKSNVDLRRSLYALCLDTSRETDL

| IC50 (read-out: Kv1.5 IC50) [µM] | inhibition at 0.3 µM [%] | SMILES | also measured |
| --- | --- | --- | --- |
| – | 30.7 | CC1=C(S(=O)(=O)c2ccccc2)C(c2ccc(F)c(C)c2)n2nc(C(F)(F)F)cc2N1 (racemic) [Example 22, 7-(4-Fluoro-3-methylphenyl)-5-methyl-6-(phenylsulfonyl)-2-(trifluoromethyl)-4,7-dihydropyrazolo[1,5-a]pyrimidine] | – |
| – | 85.6 | COc1ccc(S(=O)(=O)C2=C(C)Nc3cc(C(F)(F)F)nn3C2c2ccc(Cl)cc2)cc1 (single isomer, unassigned) [Example 25 Isomer 1, 7-(4-Chlorophenyl)-6-(4-methoxyphenylsulfonyl)-5-methyl-2-(trifluoromethyl)-4,7-dihydropyrazolo[1,5-a]pyrimidine] | – |
| – | 34 | CC1=C(S(=O)(=O)c2ccc(Cl)cc2)C(c2cc3ccccc3n2C)n2nc(C(F)(F)F)cc2N1 (racemic) [Example 72, 6-(4-Chlorophenylsulfonyl)-5-methyl-7-(1-methyl-1H-indol-2-yl)-2-(trifluoromethyl)-4,7-dihydropyrazolo[1,5-a]pyrimidine] | – |
| 0.197 | – | CC1=C(S(=O)(=O)c2ccccn2)C(c2ccc(Cl)cc2)n2nc(C(F)(F)F)cc2N1 (single isomer, unassigned) [Example 47 Isomer 1, 7-(4-Chlorophenyl)-5-methyl-6-(pyridin-2-ylsulfonyl)-2-(trifluoromethyl)-4,7-dihydropyrazolo[1,5-a]pyrimidine] | – |

The remaining lines, values behind:

| SMILES | IC50 (read-out: Kv1.5 IC50) [µM] | inhibition at 0.3 µM [%] | also measured |
| --- | --- | --- | --- |
| CC1=C(S(=O)(=O)c2ccc(C(F)(F)F)cc2)C(c2ccc(Cl)c(Cl)c2)n2nc(C)cc2N1 (single isomer, unassigned) [Example 9 Isomer 1, 7-(3,4-Dichlorophenyl)-2,5-dimethyl-6-(4-(trifluoromethyl)phenylsulfonyl)-4,7-dihydropyrazolo[1,5-a]pyrimidine] | 0.234 | – | – |
| CC1=C(C(=O)N(C)S(=O)(=O)c2ccc(F)cc2)C(c2ccc(Cl)c(Cl)c2)n2nc(C(F)(F)F)cc2N1 (racemic) [Example 82, 7-(3,4-Dichlorophenyl)-N-(4-fluorophenylsulfonyl)-N,5-dimethyl-2-(trifluoromethyl)-4,7-dihydropyrazolo[1,5-a]pyrimidine-6-carboxamide] | – | 7 | – |
| CCCCS(=O)(=O)NC(=O)C1=C(C)Nc2cc(C(F)(F)F)nn2C1c1ccc(Cl)c(Cl)c1 (racemic) [Example 85, N-(Butylsulfonyl)-7-(3,4-dichlorophenyl)-5-methyl-2-(trifluoromethyl)-4,7-dihydropyrazolo[1,5-a]pyrimidine-6-carboxamide] | – | 11 | – |
| CC1=C(C(=O)N(C)S(=O)(=O)c2ccccc2)C(c2ccc(Cl)c(Cl)c2)n2nc(C)cc2N1 (racemic) [Example 78, 7-(3,4-Dichlorophenyl)-N,2,5-trimethyl-N-(phenylsulfonyl)-4,7-dihydropyrazolo[1,5-a]pyrimidine-6-carboxamide] | – | – | IC50 [1]: 0.164 µM |
| CCN(CC)S(=O)(=O)C1=C(C)Nc2cc(C(F)(F)F)nn2C1c1ccc(Cl)c(Cl)c1 (single isomer, unassigned) [Example 64 Isomer 1, 7-(3,4-Dichlorophenyl)-N,N-diethyl-5-methyl-2-(trifluoromethyl)-4,7-dihydropyrazolo[1,5-a]pyrimidine-6-sulfonamide] | – | 76.2 | – |
| COc1ccc(S(=O)(=O)C2=C(C)Nc3cc(C)nn3C2c2ccc(C)c(F)c2)cc1 (single isomer, unassigned) [Example 24 Isomer 1, 7-(3-Fluoro-4-methylphenyl)-6-(4-methoxyphenylsulfonyl)-2,5-dimethyl-4,7-dihydropyrazolo[1,5-a]pyrimidine] | 0.148 | – | – |
| CC1=C(S(=O)(=O)NC(C)(C)C)C(c2ccc(Cl)cc2)n2nc(C(F)(F)F)cc2N1 (single isomer, unassigned) [Example 57 Isomer 2, N-tert-Butyl-7-(4-chlorophenyl)-5-methyl-2-(trifluoromethyl)-4,7-dihydropyrazolo[1,5-a]pyrimidine-6-sulfonamide] | – | – | Kv1.5% inhibition: 36.9% |
| COc1ccc(S(=O)(=O)C2=C(C)Nc3cc(C)nn3C2c2ccc(Cl)c(Cl)c2)cc1 (single isomer, unassigned) [Example 8 Isomer 2, 7-(3,4-Dichlorophenyl)-6-(4-methoxyphenylsulfonyl)-2,5-dimethyl-4,7-dihydropyrazolo[1,5-a]pyrimidine] | 0.174 | – | – |
| CC1=C(S(=O)(=O)NC2CCCCC2)C(c2ccc(Cl)c(Cl)c2)n2nc(C)cc2N1 (single isomer, unassigned) [Example 38 Isomer 1, N-Cyclohexyl-7-(3,4-dichlorophenyl)-2,5-dimethyl-4,7-dihydropyrazolo[1,5-a]pyrimidine-6-sulfonamide] | 0.108 | – | – |
| COc1ccc(S(=O)(=O)N(C)C(=O)C2=C(C)Nc3cc(C)nn3C2c2ccc(Cl)c(Cl)c2)cc1 (racemic) [Example 77, 7-(3,4-Dichlorophenyl)-N-(4-methoxyphenylsulfonyl)-N,2,5-trimethyl-4,7-dihydropyrazolo[1,5-a]pyrimidine-6-carboxamide] | – | – | IC50 [1]: 0.172 µM |
| CC1=C(S(=O)(=O)c2ccc(C)cc2)C(c2ccc(Cl)cc2)n2nc(C(F)(F)F)cc2N1 (single isomer, unassigned) [Example 28 Isomer 2, 7-(4-Chlorophenyl)-5-methyl-6-tosyl-2-(trifluoromethyl)-4,7-dihydropyrazolo[1,5-a]pyrimidine] | – | – | Kv1.5% inhibition: 83.4% |
| COc1ccc(S(=O)(=O)N(C)C(=O)C2=C(C)Nc3cc(C)nn3C2c2ccc(Cl)c(Cl)c2)cc1 (single isomer, unassigned) [Example 81 Isomer 1, 7-(3,4-Dichlorophenyl)-N-(4-methoxyphenylsulfonyl)-N,2,5-trimethyl-4,7-dihydropyrazolo[1,5-a]pyrimidine-6-carboxamide] | – | 16 | – |
| CC1=C(S(=O)(=O)c2ccc(Cl)cc2)C(c2cncnc2)n2nc(C(F)(F)F)cc2N1 (single isomer, unassigned) [Example 50 Isomer 2, 6-(4-Chlorophenylsulfonyl)-5-methyl-7-(pyrimidin-5-yl)-2-(trifluoromethyl)-4,7-dihydropyrazolo[1,5-a]pyrimidine] | – | – | Kv1.5% inhibition: 14.7% |
| CC1=C(S(=O)(=O)c2ccc(Cl)cc2)C(C2CCCCC2)n2nc(C(F)(F)F)cc2N1 (single isomer, unassigned) [Example 44 Isomer 2, 6-(4-Chlorophenylsulfonyl)-7-cyclohexyl-5-methyl-2-(trifluoromethyl)-4,7-dihydropyrazolo[1,5-a]pyrimidine] | – | 21.3 | – |
| CCCS(=O)(=O)N(C)C(=O)C1=C(C)Nc2cc(C(F)(F)F)nn2C1c1ccc(Cl)c(Cl)c1 (single isomer, unassigned) [Example 91 Isomer 2, 7-(3,4-Dichlorophenyl)-N,5-dimethyl-N-(propylsulfonyl)-2-(trifluoromethyl)-4,7-dihydropyrazolo[1,5-a]pyrimidine-6-carboxamide] | – | – | Kv1.5% inhibition: 52% |
| CC1=C(C(=O)N(C)S(=O)(=O)C2CC2)C(c2ccc(Cl)c(Cl)c2)n2nc(C(F)(F)F)cc2N1 (single isomer, unassigned) [Example 98 Isomer 1, N-(Cyclopropylsulfonyl)-7-(3,4-dichlorophenyl)-N,5-dimethyl-2-(trifluoromethyl)-4,7-dihydropyrazolo[1,5-a]pyrimidine-6-carboxamide] | 0.112 | – | – |
